Measurements: patent publication US6590118B1, “Aromatic compounds” (Novo Nordisk A/S, priority 1999, dated 2003)

Compared with `COC(=O)c1ccc(C(=O)c2ccccc2NC(=O)c2cccc([N+](=O)[O-])c2)cc1C(=O)OC` [Compound 115, 4-[2-(3-Nitrobenzoylamino)benzoyl]phthalic acid dimethyl ester], `COC(=O)c1ccc(C(=O)c2ccc(NC(=O)c3cccc([N+](=O)[O-])c3)cc2)cc1C(=O)OC` [Compound 114, 4-[4-(3-Nitrobenzoylamino)benzoyl]phthalic acid dimethyl ester] is higher in melting point: 133 to 137 °C for the first, 144 to 146 °C for the second.

First: CC(=O)Nc1ccccc1Oc1ccc(C#N)c(C#N)c1 [Compound 94, N-[2-(3,4-Dicyanophenoxy)phenyl]acetamide]
Second: N#Cc1ccc(Oc2ccccc2NC(=O)c2cccc([N+](=O)[O-])c2)cc1C#N [Compound 176, N-[2-(3,4-Dicyanophenoxy)phenyl]-3-nitrobenzamide]
The melting point of the first is lower: 152.2 to 153.7 °C for the first, 176.5 to 178.1 °C for the second.

First: O=C(O)c1cccc(NC(=O)c2ccccc2Oc2ccc(C(=O)O)c(C(=O)O)c2)c1 [Compound 134, 4-[2-(3-Carboxyphenylcarbamoyl)phenoxy]phthalic acid]
Second: O=C(Nc1ccc(Oc2ccc(C(=O)O)c(C(=O)O)c2)cc1)c1cccc([N+](=O)[O-])c1 [Compound 123, 4-[4-(3-Nitrobenzoylamino)phenoxy]phthalic acid]
The melting point of the first is lower: 202 to 208 °C for the first, 225 to 227 °C for the second.

Compared with `O=C(Cc1ccc(O)c([N+](=O)[O-])c1)Nc1ccccc1Oc1ccc(C(=O)O)c(C(=O)O)c1` [Compound 174, 4-{2-[2-(4-Hydroxy-3-nitrophenyl)-acetylamino]phenoxy}phthalic acid], `O=C(Cc1cc([N+](=O)[O-])ccc1Cl)Nc1ccccc1Oc1ccc(C(=O)O)c(C(=O)O)c1` [Compound 175, 4-{2-[2-(2-Chloro-5-nitrophenyl)acetylamino]phenoxy}phthalic acid] is lower in melting point: 187.8 to 189.9 °C for the first, 176 to 178.2 °C for the second.

First: O=C(Nc1ccccc1Sc1ccc(C(=O)O)c(C(=O)O)c1)c1cccc([N+](=O)[O-])c1 [Compound 125, 4-[2-(3-Nitrobenzoylamino)phenylsulphenyl]phthalic acid]
Second: O=C(O)c1ccc(Oc2ccccc2NC(=O)c2cccc([N+](=O)[O-])c2)c(C(=O)O)c1 [Compound 122, 4-[2-(3-Nitrobenzoylamino)phenoxy]isophthalic acid]
The melting point of the first is lower: 172.8 to 173.9 °C for the first, 255 to 257 °C for the second.

`O=C(O)c1cc(Oc2ccccc2NC(=O)c2cccc([N+](=O)[O-])c2)cc(C(=O)O)c1` [Compound 121, 5-[2-(3-Nitrobenzoylamino)phenoxy]isophthalic acid] showed a melting point of 184 to 190 °C.
